Laboratory results from ChEMBL document CHEMBL5257078, “Alkaloids and Polyacetylenes from Hippobroma longiflora with Antiangiogenesis Properties” (J Nat Prod, 2023).
In brackets after ≈: the same amount, converted by molar mass.

Experiments:
[1] = Antiangiogenic activity in human EPC cells assessed as suppression of EPC tube formation incubated for 24 hrs by microscopic analysis; type: functional, cell-based
[2] = Cytotoxicity against human EPC cells assessed as LDH release; type: toxicity, cell-based

| IC50 [1] [µg/mL] | SMILES | Activity [2] |
| --- | --- | --- |
| 21.1 (≈ 98.5 µM) | C/C=C/C#C/C=C\c1c(O)cccc1CO | Non-Toxic |
| 27.6 (≈ 118 µM) | C/C=C/C#C/C=C/[C@@]1(O)[C@H](CO)CC=C[C@H]1O | Non-Toxic |
| 3.7 (≈ 7.96 µM) | CNC(=O)c1cc(Oc2ccc(NC(=O)Nc3ccc(Cl)c(C(F)(F)F)c3)cc2)ccn1 [SORAFENIB] | – |
| 32 (≈ 87.1 µM) | C[N@+]1([O-])CO[C@H](c2ccccc2)C[C@@H]1CCCCCC(=O)c1ccccc1 | Non-Toxic |
| 24.5 (≈ 114 µM) | C/C=C/C#C/C=C/c1c(O)cccc1CO | Non-Toxic |

The next lines start with the compound.

| SMILES | IC50 [1] [µg/mL] | Activity [2] |
| --- | --- | --- |
| O=C(c1ccccc1)[C@H]1CN2O[C@@H]1CCC[C@H]2C[C@H](O)c1ccccc1 | 33.4 (≈ 95 µM) | Non-Toxic |
| O=C(c1ccccc1)[C@@H]1CN2O[C@@H]1CCC[C@H]2C[C@H](O)c1ccccc1 | 30.6 (≈ 87.1 µM) | – |
| O=C(c1ccccc1)[C@H]1CN2O[C@H]1CCC[C@@H]2C[C@H](O)c1ccccc1 | 44 (≈ 125 µM) | Non-Toxic |
